Measurements from PubChem BioAssay (NCI).
Values joined by “and” are separate entries in the source; they are usually repeats but may differ in a detail not shown here. Equal entries are not always repeated.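 How tested: cells in 96-well plates exposed to compound for 48 hours at five concentrations. GI50 marks 50% less growth. At the TGI there is no net growth.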

Key:
Assay in all cases: NCI-60 cell line screen, 48 h
DU-145 prostate = system: DU-145 prostate
EKVX NSCLC = system: EKVX NSCLC
HCT-15 colon = system: HCT-15 colon
MALME-3M melanoma = system: MALME-3M melanoma
MDA-MB-231 breast = system: MDA-MB-231 breast
NCI/ADR-RES ovarian = system: NCI/ADR-RES ovarian
OVCAR-8 ovarian = system: OVCAR-8 ovarian
PC-3 prostate = system: PC-3 prostate
SK-MEL-28 melanoma = system: SK-MEL-28 melanoma
A498 renal = system: A498 renal

CC(C)=Cc1cc(C)c2ccc(C)c3c2c1C(C)=C(O)C3=O
GI50 (DU-145 prostate): 36.3 µM | TGI (DU-145 prostate): > 100 µM | GI50 (EKVX NSCLC): 40800 nM | TGI (EKVX NSCLC): > 100 µM | GI50 (HCT-15 colon): > 100 µM | TGI (HCT-15 colon): > 100 µM | GI50 (MALME-3M melanoma): 34.9 µM | TGI (MALME-3M melanoma): > 100 µM | GI50 (MDA-MB-231 breast): 20.4 µM | TGI (MDA-MB-231 breast): 43.3 µM | GI50 (NCI/ADR-RES ovarian): 15.7 µM | TGI (NCI/ADR-RES ovarian): 51.3 µM | GI50 (OVCAR-8 ovarian): 36.6 µM | TGI (OVCAR-8 ovarian): > 100 µM | GI50 (PC-3 prostate): 12.6 µM | TGI (PC-3 prostate): 37.8 µM | GI50 (SK-MEL-28 melanoma): 933 nM | TGI (SK-MEL-28 melanoma): > 100 µM

CC(/C=C/C(=O)c1sc(C(N)=S)nc1C)=C\c1ccccc1
TGI (A498 renal): > 100 µM | TGI (EKVX NSCLC): > 100 µM | TGI (HCT-15 colon): > 100 µM | TGI (MALME-3M melanoma): > 100 µM | TGI (OVCAR-8 ovarian): > 100 µM | TGI (SK-MEL-28 melanoma): > 100 µM

O=C1C(Cl)=C(Cl)C(=O)N1c1ccc(Cl)c(Cl)c1Cl
TGI (A498 renal): > 100 µM | TGI (EKVX NSCLC): > 100 µM | TGI (HCT-15 colon): > 100 µM | TGI (MALME-3M melanoma): > 100 µM | TGI (SK-MEL-28 melanoma): > 100 µM

COC(=O)/C(C#N)=C1\CCC(OC)N1C (stereo not given)
TGI (EKVX NSCLC): > 100 µM | TGI (HCT-15 colon): > 100 µM | TGI (MALME-3M melanoma): > 100 µM | TGI (OVCAR-8 ovarian): > 100 µM | TGI (SK-MEL-28 melanoma): > 100 µM

Cc1ccc(SSCC(O)C(O)CSSc2ccc(C)cc2)cc1 (stereo not given)
TGI (A498 renal): 18 µM | TGI (EKVX NSCLC): 36 µM and 36.1 µM | TGI (HCT-15 colon): 28.2 µM and 27.7 µM | TGI (MALME-3M melanoma): 36 µM and 30.7 µM | GI50 (OVCAR-8 ovarian): 4.21 µM and 17.4 µM | TGI (OVCAR-8 ovarian): 14.6 µM and 31.2 µM | TGI (SK-MEL-28 melanoma): 26.8 µM and 28.6 µM

COC(=O)c1onc(C2OC(C)(C)OC2C(O)COC(c2ccccc2)(c2ccccc2)c2ccccc2)c1C(=O)OC (stereo not given)
TGI (A498 renal): > 100 µM | TGI (DU-145 prostate): > 100 µM | TGI (EKVX NSCLC): > 100 µM | TGI (HCT-15 colon): > 100 µM | TGI (MALME-3M melanoma): > 100 µM | TGI (MDA-MB-231 breast): > 100 µM | TGI (OVCAR-8 ovarian): > 100 µM | TGI (PC-3 prostate): > 100 µM | TGI (SK-MEL-28 melanoma): > 100 µM

Cc1ccc2oc(=O)c3c(O)c4cccc(OC5OC(C)C6O[C@@H](c7ccccc7)OC6C5OC5OC(C)C(O)C(O)C5O)c4c4oc(=O)c1c2c34 (stereo not given in full)
GI50 (A498 renal): 0.167 µM | TGI (A498 renal): 1.22 µM and 0.95 µM | TGI (DU-145 prostate): 1.27 µM | GI50 (EKVX NSCLC): 519 nM | TGI (EKVX NSCLC): 4.09 µM and 2.55 µM | GI50 (HCT-15 colon): 0.261 µM | TGI (HCT-15 colon): 1.5 µM and 5.01 µM | GI50 (MALME-3M melanoma): 0.126 µM | TGI (MALME-3M melanoma): 1.58 µM and 2.52 µM | TGI (MDA-MB-231 breast): 1.35 µM | GI50 (OVCAR-8 ovarian): 0.0562 µM | TGI (OVCAR-8 ovarian): 2.74 µM and 1.43 µM | TGI (PC-3 prostate): 1.4 µM | GI50 (SK-MEL-28 melanoma): 331 nM | TGI (SK-MEL-28 melanoma): 1.88 µM and 2.01 µM

CC(C)=Cc1cc(CCC/C(C)=C/Cc2c(O)cc(C)c(C(=O)O)c2O)co1
TGI (DU-145 prostate): > 100 µM | TGI (EKVX NSCLC): > 100 µM | TGI (HCT-15 colon): > 100 µM | TGI (MDA-MB-231 breast): > 100 µM | TGI (NCI/ADR-RES ovarian): > 100 µM | TGI (OVCAR-8 ovarian): > 100 µM | TGI (PC-3 prostate): > 100 µM | TGI (SK-MEL-28 melanoma): > 100 µM

COc1cc2c(cc1OC)C(C(CBr)CBr)N(C1CCCC1)CC2 (stereo not given)
TGI (A498 renal): > 100 µM | TGI (EKVX NSCLC): > 100 µM | TGI (HCT-15 colon): > 100 µM | TGI (MALME-3M melanoma): > 100 µM | TGI (OVCAR-8 ovarian): > 100 µM | TGI (SK-MEL-28 melanoma): > 100 µM

CCCCCCC(=O)C/C(CCC(=O)N(Cc1ccccc1)Cc1ccccc1)=N\NC(N)=O
TGI (A498 renal): > 100 µM | TGI (EKVX NSCLC): > 100 µM | TGI (HCT-15 colon): > 100 µM | TGI (MALME-3M melanoma): > 100 µM | TGI (OVCAR-8 ovarian): > 100 µM | TGI (SK-MEL-28 melanoma): > 100 µM

CCc1ccc2oc(=O)ccc2c1
TGI (A498 renal): > 100 µM | TGI (EKVX NSCLC): > 100 µM | TGI (HCT-15 colon): > 100 µM | TGI (MALME-3M melanoma): > 100 µM | TGI (NCI/ADR-RES ovarian): > 100 µM | TGI (OVCAR-8 ovarian): > 100 µM | TGI (PC-3 prostate): > 100 µM | TGI (SK-MEL-28 melanoma): > 100 µM

Cc1ccc(N2C(=O)/C(=C/c3ccc(N(CCC#N)CCC#N)cc3)N=C2COc2ccc(Cl)cc2Cl)cc1
TGI (EKVX NSCLC): > 100 µM | TGI (HCT-15 colon): > 100 µM | TGI (MALME-3M melanoma): > 100 µM | TGI (OVCAR-8 ovarian): > 100 µM | TGI (SK-MEL-28 melanoma): > 100 µM

O=c1c2ccccc2oc2ccccc12 (tested in a mixture with another compound)
TGI (A498 renal): 82.5 µM | TGI (EKVX NSCLC): > 100 µM | TGI (MALME-3M melanoma): 8.18 µM | TGI (OVCAR-8 ovarian): > 100 µM

C1CSC[C@H]2COC[C@@H](CSCCS1)S2
TGI (DU-145 prostate): > 100 µM | TGI (EKVX NSCLC): > 100 µM | TGI (HCT-15 colon): > 100 µM | TGI (MDA-MB-231 breast): > 100 µM | TGI (NCI/ADR-RES ovarian): > 100 µM | TGI (OVCAR-8 ovarian): > 100 µM | TGI (PC-3 prostate): > 100 µM | TGI (SK-MEL-28 melanoma): > 100 µM

CC1CCCC(C#N)(NOC2=NCCN2)C1 (stereo not given)
GI50 (DU-145 prostate): 24.1 µM | TGI (DU-145 prostate): > 100 µM | GI50 (EKVX NSCLC): 75.8 nM | TGI (EKVX NSCLC): 28.2 µM | GI50 (HCT-15 colon): 44.6 µM | TGI (HCT-15 colon): > 100 µM | GI50 (MDA-MB-231 breast): 19.4 µM | TGI (MDA-MB-231 breast): > 100 µM | GI50 (NCI/ADR-RES ovarian): > 100 µM | TGI (NCI/ADR-RES ovarian): > 100 µM | GI50 (OVCAR-8 ovarian): 41 µM | TGI (OVCAR-8 ovarian): > 100 µM | GI50 (PC-3 prostate): > 100 µM | TGI (PC-3 prostate): > 100 µM | GI50 (SK-MEL-28 melanoma): > 100000 nM | TGI (SK-MEL-28 melanoma): > 100 µM

CN1CCN=C1c1nnn(-c2ccc([N+](=O)[O-])cc2)c1-c1ccccc1
TGI (A498 renal): > 100 µM | TGI (EKVX NSCLC): > 100 µM | TGI (HCT-15 colon): > 100 µM | TGI (MALME-3M melanoma): > 100 µM | TGI (OVCAR-8 ovarian): > 100 µM | TGI (SK-MEL-28 melanoma): > 100 µM

CC(C)[P+](c1ccccc1)(c1ccccc1)c1ccccc1
GI50 (A498 renal): 9.22 µM | TGI (A498 renal): 74.9 µM | GI50 (DU-145 prostate): 7.29 µM | TGI (DU-145 prostate): > 100 µM | GI50 (HCT-15 colon): > 100 µM | TGI (HCT-15 colon): > 100 µM | GI50 (MDA-MB-231 breast): 10.6 µM | TGI (MDA-MB-231 breast): > 100 µM | GI50 (NCI/ADR-RES ovarian): > 100 µM | TGI (NCI/ADR-RES ovarian): > 100 µM | GI50 (OVCAR-8 ovarian): 4.42 µM | TGI (OVCAR-8 ovarian): > 100 µM | GI50 (PC-3 prostate): 2.42 µM | TGI (PC-3 prostate): 34.6 µM | GI50 (SK-MEL-28 melanoma): 21200 nM | TGI (SK-MEL-28 melanoma): > 100 µM

CCOC(=O)c1c(-c2ccccc2)[n+](=O)c2cc(F)c(F)cc2n1[O-]
GI50 (A498 renal): 5.02 µM | TGI (A498 renal): 17 µM | GI50 (DU-145 prostate): 1.78 µM | TGI (DU-145 prostate): 3.55 µM | GI50 (EKVX NSCLC): 1730 nM | TGI (EKVX NSCLC): 3.47 µM | GI50 (HCT-15 colon): 0.215 µM | TGI (HCT-15 colon): 0.441 µM | GI50 (NCI/ADR-RES ovarian): 0.924 µM | TGI (NCI/ADR-RES ovarian): 2.66 µM | GI50 (OVCAR-8 ovarian): 2.06 µM | TGI (OVCAR-8 ovarian): 4.43 µM | GI50 (PC-3 prostate): 1.65 µM | TGI (PC-3 prostate): 3.16 µM | GI50 (SK-MEL-28 melanoma): 1730 nM | TGI (SK-MEL-28 melanoma): 3.34 µM

C=CCC12CC(=O)CCC1c1ccc(OC)cc1C2=O (stereo not given)
TGI (A498 renal): > 100 µM | TGI (EKVX NSCLC): > 100 µM | TGI (HCT-15 colon): > 100 µM | TGI (MALME-3M melanoma): > 100 µM | TGI (OVCAR-8 ovarian): > 100 µM | TGI (SK-MEL-28 melanoma): > 100 µM

Cc1ccccc1-n1c(=S)[nH]c2c(sc(=O)n2-c2ccccc2C)c1=O
TGI (A498 renal): > 100 µM | TGI (EKVX NSCLC): > 100 µM | TGI (HCT-15 colon): > 100 µM | TGI (MALME-3M melanoma): > 100 µM | TGI (OVCAR-8 ovarian): > 100 µM | TGI (SK-MEL-28 melanoma): > 100 µM

O=c1cc[nH]cc1-c1c[nH]ccc1=O
TGI (A498 renal): > 100 µM | TGI (EKVX NSCLC): > 100 µM | TGI (HCT-15 colon): > 100 µM | TGI (MALME-3M melanoma): > 100 µM | TGI (OVCAR-8 ovarian): > 100 µM | TGI (SK-MEL-28 melanoma): > 100 µM

Nc1c(C(=O)c2cccc(C(O)CO)c2)cnn1-c1ccc(F)cc1 (stereo not given)
GI50 (A498 renal): > 25 µM | TGI (A498 renal): > 25 µM | GI50 (DU-145 prostate): > 25 µM | TGI (DU-145 prostate): > 25 µM | GI50 (HCT-15 colon): > 25 µM | TGI (HCT-15 colon): > 25 µM | GI50 (MALME-3M melanoma): > 25 µM | TGI (MALME-3M melanoma): > 25 µM | GI50 (MDA-MB-231 breast): > 25 µM | TGI (MDA-MB-231 breast): > 25 µM | GI50 (NCI/ADR-RES ovarian): > 25 µM | TGI (NCI/ADR-RES ovarian): > 25 µM | GI50 (OVCAR-8 ovarian): > 25 µM | TGI (OVCAR-8 ovarian): > 25 µM | GI50 (PC-3 prostate): > 25 µM | TGI (PC-3 prostate): > 25 µM | GI50 (SK-MEL-28 melanoma): > 25000 nM | TGI (SK-MEL-28 melanoma): > 25 µM
